The values below come from patent publication US11571460B2 (priority 2017, dated 2023).

Series [1] is described as follows: Body weight of tumor-bearing mice. In kind it is in vivo. How it is done:
The weights of mice were measured every 2 to 3 days until 0 to 18 days.

The nature of series [2]: Blood cell profile test (hematological profiling). The format is in vivo, mice. As to the method:
The blood was collected from the retro-orbital plexus of mice under anesthesia. The blood was immediately mixed with EDTA and analyzed by a Hemavet 950 auto-sampler (Drew scientific, Waterbury, Conn., USA) according to manufacturer's instructions. The parameters of leukocytes, erythrocytes, and platelets were measured and expressed as a percentage.
The blood was collected via the retro-orbital plexus during anesthesia.

For a further series, the system named is splenocytes. The series is described as follows: Melittin binding study with rhodamine-bound melittin in splenocytes. In kind it is cell-based, mice. As to the method:
After 1 hour, cells were harvested and the non-binding peptides were washed twice.
Next, the cells were cultured with rhodamine-bound peptides and stained with CD11b-APC antibodies as described above.
Annexin-V was added to a sample before data collection to distinguish dead cells. […] tumor-associated macrophage was stained with CD86-PEcy7 (e-bioscience) or CD206-PercpCy5.5 (Biolegend). The cells were detected in FACS Calibur or FACS CantoII.

Series [3] concerns Lewis lung carcinoma cells. The series can be described thus: Quantitative real-time PCR in Lewis lung carcinoma cells. The format is cell-based. The settings on record: control vs melittin-treated. How it is done:
Quantitative real time PCR was performed according to previous reports. Data were expressed as […] for experimental genes, normalized to GAPDH, and expressed as a fold change compared to an LPS or IL-4 untreated control group. The following primers were used: Gapdh(for: […] (SEC) ID NO: 1); rev: […] (SEQ ID NO: 2)), Tnf-α(for: TTCTG […] (SEQ ID NO: 3); rev: GTAT […] (SEQ ID NO: 4), Mrc1/CD206(for: […] (SEQ ID NO: 5); rev: GGTT […] (SEQ ID NO: 6)), I1-10(for: […] (SEQ ID NO: 7); rev: […] (SEQ ID NO: 8)), Tgf-β(for: […] (SEQ ID NO: 9); rev: […] (SEQ ID NO: 10)), Vegf(for: GGAGA […] (SEQ ID NO: 11); rev: […](SEQ ID NO: 12)), F1t1/VEGFR1(for: […] (SEQ. ID NO: 13); rev: […] (SEQ ID NO: 14)).
Background: Quantitative PCR measures a nucleic acid by following its amplification.

Series [4] concerns bone marrow-derived macrophages (BMDM). The series is described as follows: ELISA of cytokines in BMDM culture supernatant. The format is cell-based, mouse. As to the method: Cells were harvested as previously described to generate mouse bone marrow-derived macrophages. The cells were cultured for 7 days in an RPMI-1640 complete culture medium containing 10 ng/ml of mouse recombinant M-CSF (R & D systems, Minneapolis, Minn., USA). After the cells were differentiated into M0 macrophages, the cells were smeared in a 6-well plate (1×10^6 cells/well) and cultured overnight under 100 ng/ml LPS or 20 ng/ml mouse recombinant IL-4 (R & D system) to induce differentiation of M1 or M2 phenotype macrophages.
The secretion of cytokine from the culture medium was analyzed using an ELISA kit according to a procedure recommended by a provider. Mouse IL-10 and
TNF-α were purchased from BD Biosciences, and TGF-β was purchased from R & D systems. Results were expressed as pg of normalized cytokine per mg of total protein.
For orientation: In an ELISA, binding on a coated surface is turned into a signal by an enzyme label.

A further series has as its system lung cancer cells. The series is described as follows: Cell cycle analysis by PI staining and flow cytometry. The format is cell-based. The settings on record: 0.1 to 2 μg/mL melittin. How it is done: The cells were collected, washed twice with PBS, fixed with 70% pre-cooled ethanol and stored at −20° C. overnight. The cells were washed and resuspended in PBS 500 μl containing 0.1% Triton X-100 and RNase 20 μg/ml. Next, 50 μg/ml of propidium iodide (PI) was added. Stained cells were cultured at 37° C. for 20 minutes and then detected by a FACS Calibur flow cytometer (Becton Dickinson, San Jose, Calif., USA). Data were analyzed by Flow Jo software (Treestar, Inc., San Carlos, Calif., USA).
(In general: A flow cytometer gives signals particle by particle.)

Series [5] concerns tumor-associated macrophages (TAM). The series is described as follows: Flow cytometry of tumor-associated macrophages in tumor tissue. In kind it is in vivo, mice. As to the method: A tissue was dissociated by cutting the tumor into thin pieces and gently stirring in DNase I (1 U/ml; Roche, Indianapolis, trypsin-EDTA (Gibco)) under DMEM (Welgene) preheated at 37° C. for 1 hour. The tissue was mechanically dissociated in a 100 μm nylon mesh strainer, then single cells passed through a 40 μm nylon mesh strainer, and the spleen was mechanically dissociated with a 40 μm nylon mesh strainer. RBC was dissolved for 5 minutes in a 1× pharmlyse buffer.
The cells were stained with fluorescent tag antibodies. All data were detected by a FACS Calibur flow cytometer and analyzed with FlowJo software. CD45-FITC, CD3-FITC, CD4-PE, CD4-FITC, CD8-APC, CD11b-APC, CD11 c-PE, CD25 (CD12-FITC)-PE, CD25-APC, B220-FITC, CD19-PE, CD86-APC, and Foxp3-Alexa Fluor647 were purchased from BD bioscience and F4/80-PE and CD206-APC were purchased from Biolegend (San Diego, Calif., USA).
Lewis lung carcinoma cells were mixed with a Matrigel matrix (Coming, N.Y., USA) to generate a tumor model. Male C57BL/6 wild-type mice (6 to 8 weeks old) were inoculated subcutaneously in the right flank with 5×10^4 cells per mouse. […] Before 3 days of tumor injection, macrophage deficiency was performed by clodronate liposomes (first dose of 200 μl per mouse, maintenance dose of 100 μl intraperitoneally every 4 days). Clodronate liposome and control liposome were purchased from FormuMax (Sunnyvale, Calif., USA). A tumor size was monitored every 2 to 3 days by measuring two opposite diameters (volume=length×width×width/2). If the tumor size exceeded 5% of the body weight, the mice were sacrificed for a next experiment set. Thereafter, the tumor and the spleen were surgically removed.

In series [1] (day 0), `CC[C@H](C)[C@H](NC(=O)CN)C(=O)NCC(=O)N[C@@H](C)C(=O)N[C@H](C(=O)N[C@@H](CC(C)C)C(=O)N[C@@H](CCCCN)C(=O)N[C@H](C(=O)N[C@@H](CC(C)C)C(=O)N[C@H](C(=O)N[C@H](C(=O)NCC(=O)N[C@@H](CC(C)C)C(=O)N1CCC[C@H]1C(=O)N[C@@H](C)C(=O)N[C@@H](CC(C)C)C(=O)N[C@H](C(=O)N[C@@H](CO)C(=O)N[C@@H](Cc1c[nH]c2ccccc12)C(=O)N[C@H](C(=O)N[C@@H](CCCCN)C(=O)N[C@@H](CCCNC(=N)N)C(=O)N[C@@H](CCCCN)C(=O)N[C@@H](CCCNC(=N)N)C(=O)N[C@@H](CCC(N)=O)C(=O)N[C@@H](CCC(N)=O)C(N)=O)[C@@H](C)CC)[C@@H](C)CC)[C@@H](C)O)[C@@H](C)O)C(C)C)C(C)C` [melittin] displayed a weight of mice of 22.84±0.36. Further, the weight of mice in series [1] (day 18) was determined as 24.72±0.45. Further, the weight loss result in series [1] (measured every 2 to 3 days, 0 to 18 days) is “no weight loss”. Besides, the “hematological factors (WBC, RBC, Hgb, HCT, MCV and MCH)” value in series [2] (0.5 mg/kg or 1 mg/kg melittin) is reported as “did not result in significant changes”. Moreover, the acute cytotoxic damage result in series [2] (judged from N/L ratio) is “does not cause acute cytotoxic damage”. For the same molecule, the “melittin binding in CD11b+ cells” value with splenocytes (0.5 μg/ml rhodamine-bound melittin, 1 hour) is reported as “approximately 16%”. Also, in the series on splenocytes (M1 type), the “percentage of melittin+CD86+ population in F4/80+ cells” value was determined as 3.27±0.39%. In addition, the “percentage of melittin and CD206 double positive population in F4/80+ cells” value with splenocytes (M2 type) amounted to 9.15±1.05%. In the series with splenocytes (rhodamine-bound melittin), the “melittin binding to DC (CD11c)” value is given as 24.44±0.56, the “melittin binding to macrophages (F4/80) in annexinli-CD11b+ melittin+ cells” value is 67.70±2.96 and the “melittin binding to neutrophils (Gr-1)” value turned out to be 36.36±0.95. Further, in series [3], the “mRNA level of Vegf” value was “no large difference” and the “mRNA level of flt1/VFGFR” value is given as “no large difference”. In series [4] (LPS stimulation), the “protein level of TNF-α” value is “did not affect”. Also, in series [4] (M2-type BMDM (IL-4)), the “protein expression level of IL-10” value is “not changed” and the “protein expression level of TGF-β” value is given as “not changed”. Besides, in the series on lung cancer cells, the “direct killing effect on cancer cells” value is “no direct killing effect”. Moreover, the “percentage of cells at each cell cycle stage” value with lung cancer cells (24 hours) is “no percentage change”. For the same molecule, the “percentage of CD11b+F4/80+ macrophages in CD45+ tumor-infiltrating leukocytes” value in series [5] (melittin-treated tumor-bearing mice) was found to be 38.70±0.79%. Moreover, the “number of F4/80+CD86+ in CD45+ cells” value in series [5] (tumor, M1-type) is given as “not increased”. For the same molecule, the “percentage of F4/80+CD206+ in CD45+ cells” value in series [5] (tumor, M2-type) is recorded as 9.53±0.63%.
